Reference: patent US10604514B2, “6-(5-membered heteroaryl)isoquinolin-3-yl carboxamides and preparation and use thereof” (Samumed, LLC, priority 2017, dated 2020)
Where two headings read alike, the source gives them in different places.

Tests used:
[1] = test system: Wnt activity (Sp5-Luc reporter in SW480 colon carcinoma cells); assay: Wnt activity screening assay (Sp5-Luc reporter gene assay); assay type: cell-based, human; settings: Homo sapiens; for EC50: Sp5-Luc reporter, SW480 cells, 36 to 48 hours
Text: The screening assay for Wnt activity is described as follows. Reporter cell lines can be generated by stably transducing cancer cell lines (e.g., colon cancer) or primary cells (e.g., IEC-6 intestinal cells) with a lentiviral construct that includes a Wnt-responsive promoter driving expression of the firefly luciferase gene.
SW480 colon carcinoma cells were transduced with a lentiviral vector expressing luciferase with a human Sp5 promoter consisting of a sequence of eight TCF/LEF binding sites. SW480 cells stably expressing the Sp5-Luc reporter gene and a hygromycin resistance gene were selected by treatment with 150 μg/mL of hygromycin for 7 days. These stably transduced SW480 cells were expanded in cell culture and used for all further screening activities. Each compound was dissolved in DMSO as a 10 mM stock and used to prepare compound source plates. Serial dilution (1:3, 10-point dose-response curves starting from 10 μM) and compound transfer was performed using the ECHO 550 (Labcyte, Sunnyvale, Calif.) into 384-well white solid bottom assay plates (Greiner Bio-One) with appropriate DMSO backfill for a final DMSO concentration of 0.1%. For Sp5-Luc reporter gene assays, the cells were plated at 4,000 cells/well in 384-well plates with a DMEM medium containing 1% fetal bovine serum, and 1% Penicillin-Streptomycin and incubated for 36 to 48 hours at 37° C. and 5% CO2. Following incubation, 15 μl of BriteLite Plus luminescence reagent (Perkin Elmer) was added to each well of the 384-well assay plates. The plates were placed on an orbital shaker for 2 min and then luminescence was quantified using the Envision (Perkin Elmer) plate reader. Readings were normalized to DMSO only treated cells, and normalized activities were utilized for EC50 calculations using the dose-response log (inhibitor) vs. response -variable slope (four parameters) nonlinear regression feature available in GraphPad Prism 5.0 (or Dotmatics).

GSK3β kinase = GSK3β kinase (Homo sapiens (Human), UniProt P49841); assay: GSK3β kinase assay (Ser/Thr 09 peptide Z-lyte, FRET); assay type: biochemical; settings: method text calls the value IC50;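 further: Coumarin/fluorescein emission ratio converted to percent phosphorylation against unphosphorylated (0%) and phosphorylated (100%) controls, 1 h compound incubation at room temperature, 11-point threefold dilutions from 10 µM, run in duplicate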
GSK3β kinase, sequence (P49841 whole entry): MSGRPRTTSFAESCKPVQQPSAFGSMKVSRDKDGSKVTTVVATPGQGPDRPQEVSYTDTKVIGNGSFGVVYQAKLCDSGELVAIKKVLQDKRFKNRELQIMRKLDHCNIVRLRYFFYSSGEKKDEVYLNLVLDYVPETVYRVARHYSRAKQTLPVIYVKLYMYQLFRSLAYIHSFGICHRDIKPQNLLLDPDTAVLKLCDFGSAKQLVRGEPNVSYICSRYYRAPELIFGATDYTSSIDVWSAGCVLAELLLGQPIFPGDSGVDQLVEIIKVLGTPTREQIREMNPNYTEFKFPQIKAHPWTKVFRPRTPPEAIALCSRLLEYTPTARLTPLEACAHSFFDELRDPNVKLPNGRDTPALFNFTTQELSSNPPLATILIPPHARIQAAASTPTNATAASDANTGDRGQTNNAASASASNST

[2] = test system: Tau phosphorylation at Ser396 (pSer396), SH-SY5Y cells; assay: Tau phosphorylation at Ser396 (pSer396) in SH-SY5Y cells, ELISA/western blot; assay type: cell-based, human; settings: Homo sapiens; SH-SY5Y cells, overnight (16-18 h); read-out: pSer396 Tau EC50;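 further: cell lysates probed for reduced Tau pSer396 via ELISA (colorimetric) or western blot (chemiluminescence), both with one shared pSer396 antibody, EC50 for lowering phosphorylation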
[3] = test system: SW480 colon carcinoma cells; assay: Cell viability assay (CellTiter-Glo) in SW480 cells; assay type: cell-based, human; settings: Homo sapiens; for EC50: 96 h, cell viability, SW480 cells, four days, CellTiter-Glo; for inhibition at 10 µM: SW480, read-out: percent inhibition at 10 μM;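 on all read-outs here: SW480 cells stably carrying an Sp5-luciferase TCF/LEF reporter, luminescent ATP signal as viability measure, DMSO-treated cells as control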
[4] = test system: LL29 cells (primary human fibroblasts derived from IPF patients), α-smooth muscle actin; assay: Inhibition of fibrotic process: αSMA in TGF-β1-treated primary human fibroblasts from IPF patients (LL29 cells); assay type: cell-based; settings: Homo sapiens, Fibroblast; for EC50: 96 h, % αSMA-positive LL29 cells, TGF-β1 20 ng/mL, 4 days; for inhibition at 10 µM: read-out: percent inhibition at 10 μM
Text: Representative compounds were screened using primary human fibroblasts (derived from IPF patients) treated with TGF-β1 to determine their ability to inhibit the fibrotic process.
Primary human fibroblasts derived from IPF patients (LL29 cells) [^1Xiaoqiu Liu, et. al., “Fibrotic Lung Fibroblasts Show Blunted Inhibition by cAMP Due to Deficient cAMP Response Element-Binding Protein Phosphorylation”, Journal of Pharmacology and Experimental Therapeutics (2005), 315(2), 678-687; ^2Watts, K. L., et. al., “RhoA signaling modulates cyclin D1 expression in human lung fibroblasts; implications for idiopathic pulmonary fibrosis”, Respiratory Research (2006), 7(1), 88] were obtained from American Type Culture Collection (ATCC) and expanded in F12 medium supplemented with 15% Fetal Bovine Serum and 1% Penicillin/Streptomycin.
Each compound was dissolved in DMSO as a 10 mM stock and used to prepare compound source plates. Serial dilution (1:2, 11-point dose-response curves from […] to 0.94 nM) and compound transfer was performed using the ECHO 550 (Labcyte, Sunnyvale, Calif.) into 384-well clear bottom assay plates (Greiner Bio-One) with appropriate DMSO backfill for a final DMSO concentration of 0.1%. LL29 cells were plated at 1,500 cells/well in 70 μL/well F12 medium supplemented with 1% Fetal Bovine Serum. TGF-β1 (Peprotech; 20 ng/mL) was added to the plates to induce fibrosis (ref. 1 and 2 above). Wells treated with TGF-31 and containing DMSO were used as positive control, and cells with only DMSO were negative control. Cells were incubated at 37° C. and 5% CO2 for 4 days. Following incubation for 4 days, SYTOX green nucleic acid stain (Life Technologies [Thermo Fisher Scientific]) was added to the wells at a final concentration of 1 μM and incubated at room temperature for 30 min. Cells were then fixed using 4% formaldehyde (Electron Microscopy Sciences), washed 3 times with PBS followed by blocking and permeabilization using 3% Bovine Serum Albumin (BSA; Sigma) and 0.3% Triton X-100 (Sigma) in PBS. Cells were then stained with antibody specific to α-smooth muscle actin (αSMA; Abcam) (ref. 1 and 2 above) in 3% Bovine Serum Albumin (BSA; Sigma) and 0.3% Triton X-100 (Sigma) in PBS, and incubated overnight at 4° C. Cells were then washed 3 times with PBS, followed by incubation with Alexa Flor-647 conjugated secondary antibody (Life Technologies [Thermo Fisher Scientific]) and DAPI in 3% Bovine Serum Albumin (BSA; Sigma) and 0.3% Triton X-100 (Sigma) in PBS at room temperature for 1 hour. Cells were then washed 3 times with PBS and plates were sealed for imaging. αSMA staining was imaged by excitation at 630 nm and emission at 665 nm and quantified using the Compartmental Analysis program on the CellInsight CX5 (Thermo Scientific). Dead or apoptotic cells were excluded from analysis based on positive SYTOX green staining. % of total cells positive for αSMA were counted in each well and normalized to the average of 11 wells treated with TGF-β1 on the same plate using Dotmatics' Studies Software.

IL-6 = IL-6 inhibition in LPS-stimulated human peripheral blood mononuclear cells (HTRF); assay type: cell-based; settings: Homo sapiens, PBMC; for EC50: IL-6, LPS-stimulated huPBMCs, HTRF; for inhibition at 10 µM: read-out: percent value in parentheses below EC50 >10
Protocol: Fresh Normal PB MNC (Catalog # PB001, AllCells, Alameda, Calif.) were shipped overnight at 4° C. and resuspended in Roswell Park Memorial Institute (RPMI) 1640 Medium, with GlutaMAX Supplement (Catalog #61870127, ThermoFisher Scientific, Waltham, Mass.) supplemented with 1% Penicillin-Streptomycin (Catalog #151401633 ThermoFisher Scientific, Waltham, Mass.) and 1% fetal bovine serum (FBS) (Catalog #16140089, ThermoFisher Scientific, Waltham, Mass.) assay media.
Fresh normal human peripheral blood mononuclear cells (huPBMCs) were resuspended in 1% FBS-RPMI assay media with 1% Penicillin-Streptomycin 1% to a cell concentration of 1×10e6 cells/mL. Each compound was dissolved in DMSO (Catalog # D8418-100 ml, Sigma-Aldrich, St. Louis, Mo.) as a 10 mM stock and used to prepare compound source plates. Serial dilution (1:3, 10-point dose-response curves starting from 10 μM) and compound transfer was performed using the ECHO 550 (Labcyte, Sunnyvale, Calif.) into 384-well white Proxiplate-Plus assay plates (Catalog #6008289, PerkinElmer, Shelton, Conn.) with appropriate DMSO backfill for a final DMSO concentration of 0.25%. huPBMCs were plated at 5000 cells/well in the 384-well Proxiplate-Plus assay plates and incubated at 37° C.-5% CO2 for 2 hours. 50 ng/mL of Lipopolysaccharides from Escherichia coli 0111:B4 (Catalog # L5293-2 ML, Sigma-Aldrich, St. Louis, Mo.) was added after 2 hours and cells were incubated for another 22 hours at 37° C.-5% CO2. After 22 hour incubation, a mixture of anti-IL6 XL665 and anti-IL-6 Cryptate diluted in reconstitution buffer (Catalog #62IL6PEC, Cisbio Inc., Bedford, Mass.) was added to each well. Following incubation for 3 hours at room temperature, Homogeneous Time-Resolved Fluorescence (HTRF) was measured using the Envision (Perkin Elmer, Shelton, Conn.) at 665 nm and […]. The ratio of fluorescence at 665 nm to 620 nm was used as a readout for IL-6 quantification. All samples were processed in duplicate. Readings were normalized to DMSO treated cells and normalized activities were utilized for EC50 calculations. EC50 was determined using software generated by Dotmatics Limited (Windhill Bishops Stortford Herts, UK) using the Levenberg-Marquardt 4 parameter fitting procedure with finite different gradients.

DYRK1A kinase = DYRK1A kinase (Homo sapiens (Human), UniProt Q13627); assay: DYRK1A kinase assay (Ser/Thr 18 peptide Z-lyte, FRET)
[5] = DYRK1A kinase, method text calls the value IC50

Row | EC50 [1] [nM] | EC50 (GSK3β kinase) [nM] | EC50 [2] [nM] | EC50 [3] [nM] | EC50 (IL-6) [nM] | EC50 (DYRK1A kinase) [nM] | EC50 (DYRK1A kinase; [5]) [nM] | Compound | EC50 [4] [nM] | inhibition at 10 µM [3] [%] | inhibition at 10 µM [4] [%] | inhibition at 10 µM (IL-6) [%] | inhibition at 10 µM ([1]; SW480, read-out: percent inhibition at 10 μM) [%]
1 | 917 | 115 | 511 | 738 | 1050 | 3 | – | [2H]c1c(NC(=O)C2CCNCC2)ncc2ccc(-c3cnn(C)c3)cc12 [Compound 5, N-(6-(1-Methyl-1H-pyrazol-4-yl)isoquinolin-3-yl-4-d)piperidine-4-carboxamide] | 113 | – | – | – | –
2 | 923 | 18 | 119 | 719 | 9220 | – | 4 | Cn1cc(-c2cc(F)c3cnc(NC(=O)[C@H]4CC[C@H](N(C)C)CC4)cc3c2)nn1 [Compound 10, trans-4-(Dimethylamino)-N-(8-fluoro-6-(1-methyl-1H-1,2,3-triazol-4-yl)isoquinolin-3-yl)cyclohexane-1-carboxamide] | 208 | – | – | – | –
3 | 2810 | 10 | 190 | > 10000 | > 10000 | – | 10 | Cn1cc(-c2ccc3cnc(NC(=O)CN4CCOCC4)cc3c2)nn1 [Compound 11, N-(6-(1-Methyl-1H-1,2,3-triazol-4-yl)isoquinolin-3-yl)-2-morpholinoacetamide] | > 10000 | 46.3 | 3.8 | 38.4 | –
4 | 943 | 189 | 436 | 713 | 1120 | – | 16 | Cc1nc(-c2ccc3cnc(NC(=O)[C@H]4CC[C@H](N5CCN(C)CC5)CC4)cc3c2)co1 [Compound 12, trans-N-(6-(2-Methyloxazol-4-yl)isoquinolin-3-yl)-4-(4-methylpiperazin-1-yl)cyclohexane-1-carboxamide] | 102 | – | – | – | –
5 | 3700 | 1250 | 4700 | 3510 | > 10000 | – | 13 | Cc1ncc(-c2ccc3cnc(NC(=O)N4CCOCC4)cc3c2)n1C [Compound 13, N-(6-(1,2-Dimethyl-1H-imidazol-5-yl)isoquinolin-3-yl)morpholine-4-carboxamide] | > 10000 | – | 38.2 | 17.6 | –
6 | 5350 | 48 | 382 | 5550 | > 10000 | – | 33 | Cn1cnnc1-c1ccc2cnc(NC(=O)CN3CCOCC3)cc2c1 [Compound 14, N-(6-(4-Methyl-4H-1,2,4-triazol-3-yl)isoquinolin-3-yl)-2-morpholinoacetamide] | 1380 | – | – | 12.5 | –
7 | > 10000 | 59 | 981 | > 10000 | > 10000 | – | 61 | Cc1nnc(-c2ccc3cnc(NC(=O)CN4CCOCC4)cc3c2)n1C [Compound 15, N-(6-(4,5-Dimethyl-4H-1,2,4-triazol-3-yl)isoquinolin-3-yl)-2-morpholinoacetamide] | 896 | 38 | – | 15.8 | 40.1
8 | 1460 | 122 | 286 | 808 | 1040 | – | 5 | CN[C@H]1CC[C@H](C(=O)Nc2cc3cc(-c4cnc(C)o4)ccc3cn2)CC1 [Compound 16, trans-4-(Methylamino)-N-(6-(2-methyloxazol-5-yl)isoquinolin-3-yl) cyclohexane-1-carboxamide] | 172 | – | – | – | –
9 | 4100 | 188 | 743 | 6910 | 3440 | – | 18 | Cc1ncc(-c2cc(F)c3cnc(NC(=O)[C@H]4CC[C@H](N(C)C)CC4)cc3c2)o1 [Compound 17, trans-4-(Dimethylamino)-N-(8-fluoro-6-(2-methyloxazol-5-yl)isoquinolin-3-yl)cyclohexane-1-carboxamide] | 1430 | – | – | – | –
10 | 671 | 68 | 186 | 587 | 1250 | – | 3 | Cc1ncc(-c2cc3cc(NC(=O)[C@H]4CC[C@H](N(C)C)CC4)ncc3cc2F)o1 [Compound 18, trans-4-(Dimethylamino)-N-(7-fluoro-6-(2-methyloxazol-5-yl)isoquinolin-3-yl)cyclohexane-1-carboxamide] | 149 | – | – | – | –
